Like-named read-outs stand apart in the source and are kept apart here.

Here are results for eight compounds from patent US11638713B2, “Patentiflorin A analogs as antiviral agents” (priority 2019, dated 2023).

One series deals with HIV. In words: microbe, parasite or virus in culture. The format is cell-based.
The subject of the next series is SF162. In words: HIV-1 clinical strain PBMC assay (p24 ELISA), SF162. The format is cell-based. The following applies: Human immunodeficiency virus 1, PBMC, read-out: IC50 against SF162.
For another series, the system named is 89.6. In words: HIV-1 clinical strain PBMC assay (p24 ELISA), 89.6. The format is cell-based. The following applies: Human immunodeficiency virus 1, PBMC, read-out: IC50 against 89.6.
Another series has as its system Bal. Description: HIV-1 clinical strain PBMC assay (p24 ELISA), Bal. It is filed as cell-based. The following applies: Human immunodeficiency virus 1, BAL, read-out: IC50 against Bal.
The test system of a further series is Lav.04. In words: HIV-1 clinical strain PBMC assay (p24 ELISA), Lav.04. The format is cell-based. The following applies: Human immunodeficiency virus 1, PBMC, read-out: IC50 against Lav.04.
The subject of a further series is 1617-1. In words: HIV-1 resistant strain PBMC assay (p24 ELISA), 1617-1 (AZT resistant). Conditions: Human immunodeficiency virus 1, PBMC, read-out: IC50 against 1617-1. It is filed as cell-based.
Another series deals with N119. Description: HIV-1 resistant strain PBMC assay (p24 ELISA), N119 (nevaripine resistant). It is filed as cell-based. Conditions: Human immunodeficiency virus 1, PBMC, read-out: IC50 against N119.
Series [1] in a line: Cytotoxicity against PBMC. The format is cell-based. The following applies: human.
The nature of another series: in vitro. Conditions: human.
Series [2] has as its system A549 cells.
Series [3] can be described thus: Repeated-dose toxicity study in mice. The following applies: 25 and 50 mg/kg, daily i.p. for 28 days.
A further series deals with H5N1 virus. In words: microbe, parasite or virus in culture. It is filed as cell-based, H5N1 influenza virus. The following applies: for EC50: H5N1, A549, read-out: EC50 against H5N1 virus.
The subject of the next series is EBOV (Ebola virus). Description: microbe, parasite or virus in culture. The following applies: Zaire ebolavirus; for EC50: A549, read-out: EC50 against EBOV. It is filed as cell-based.
Series [4] concerns VSV (vesicular stomatitis virus). In words: microbe, parasite or virus in culture. Conditions: for EC50: A549, read-out: EC50 against VSV. It is filed as cell-based.
In series [5] the test system is A549 cells. In words: cells. The following applies: Homo sapiens, A549, read-out: % Inhibition against A549 cells.
Series [6] relates to broad HIV clinical strains. The following applies: background; read-out: EC50 against broad HIV clinical strains; cited from earlier work.
The subject of the next series is SARS-CoV-2. Description: microbe, parasite or virus in culture. It is filed as cell-based. The following applies: Severe acute respiratory syndrome coronavirus 2, HepG2, read-out: EC50 against SARS-CoV-2.
The mark [7] stands for this setting: Human immunodeficiency virus 1, A549.

`C#Cc1c2c(c(-c3ccc4c(c3)OCO4)c3cc(OC)c(OC)cc13)C(=O)OC2` [Compound 21] returned a 50% effective concentration (EC50) with HIV (setting [7]) of 17.8 nM. Further, the IC50 in the series on SF162 amounted to 23.9 nM; with 89.6 it was 28.7 nM; in the series with Bal it was 26.5 nM; in the series with Lav.04, 30.1 nM; in the series on 1617-1, 39.3 nM; with N119 it was 42.1 nM. Besides, the CC50 in [1] came out at 25.6 µM; in the series “in vitro” (CC50 (nM)), 207 nM.

Turning to “2″-Acetyl-7-O-β-D-patentiflorin A [Compound 27bc]”, the EC50 with HIV (read-out: EC50) worked out at 0.93 nM. For the same compound, the CC50 in the series on A549 cells [2] worked out at 1370 nM.

Turning to `COc1cc2c(B3OC(C)(C)C(C)(C)O3)c3c(c(-c4ccc5c(c4)OCO5)c2cc1OC)C(=O)OC3` [Compound 19a], in the series with HIV, the “anti-HIV activity in terms of SI values” was “much more improved anti-HIV activity”. Besides, a half-maximal response in the series with HIV (setting [7]) (EC50) required 77.2 nM. The 50% inhibitory concentration (IC50) stood at 154 nM in the series with SF162; 143 nM with 89.6; 188 nM in the series on Bal; 138 nM in the series on Lav.04; 152 nM in the series on 1617-1; 185 nM with N119. The values for the CC50 (in series [1]; in “in vitro” (CC50 (nM))) were more than 100 µM and 10500 nM, respectively.

For the compound `COc1cc2c(OCC#N)c3c(c(-c4ccc5c(c4)OCO5)c2cc1OC)C(=O)OC3` [Compound 17a], in the series with HIV, the “anti-HIV activity in terms of SI values” is listed as “much more improved anti-HIV activity”. The same compound yielded an EC50 with HIV (setting [7]) of 72 nM. Moreover, the IC50 turned out to be 122 nM in the series with SF162; 134 nM in the series with 89.6; 168 nM in the series with Bal; 151 nM in the series on Lav.04; 174 nM in the series on 1617-1; 203 nM with N119. Moreover, the CC50 is more than 100 µM in series [1] and 45200 nM in the series “in vitro” (CC50 (nM)). In addition, the “excised organs at the end of the experiment” value in [3] is “appeared as normal”. Further, the “toxic symptoms (weight loss, skin damage, food and water intake impairment and postual abnormality) and mortality” value in series [3] is on record as “no toxic symptoms”.

For `CCOC(=O)COc1c2c(c(-c3ccc4c(c3)OCO4)c3cc(OC)c(OC)cc13)C(=O)OC2` [Compound 12b], in the series on HIV (setting [7]), the response was half-maximal at 207 nM (EC50). The IC50 in the series on SF162 was 340 nM; in the series with 89.6, 376 nM; with Bal it was 458 nM; with Lav.04 it was 312 nM; in the series on 1617-1, 537 nM; in the series on N119, 638 nM. In addition, the CC50 in [1] is more than 100 µM; in the series “in vitro” (CC50 (nM)), more than 26800 nM.

Consider `Cc1cn([C@H]2C[C@H](N=[N+]=[N-])[C@@H](CO)O2)c(=O)[nH]c1=O` [AZT, zidovudine, reference compound], for which the EC50 was 2.6 nM with HIV (setting [7]); 3.48 nM in the series with H5N1 virus (Influenza A virus); 3.8 nM in the series on EBOV (Ebola virus); 7.06 nM in [4]; 77 to 95 nM in [6]. In addition, in the series on H5N1 virus (20 ng/mL), the “% Inhibition against H5N1 virus” value came to 92.7%. Further, the inhibition at 0.02 µg/mL in the series on H5N1 virus (Influenza A virus, H5N1, A549, 20 ng/mL, read-out: % Inhibition against H5N1 virus) is 96.5%; with EBOV (Ebola virus) (A549, 20 ng/mL, read-out: % Inhibition against EBOV), 93.6%; in [4] (A549, 20 ng/mL, read-out: % Inhibition against VSV) it was 99.4%; in the series on A549 cells [5], 1.1%.

Take `COc1cc2c(OC3O[C@H](C)[C@@H](O)[C@H](OC(=O)CC#N)[C@H]3O)c3c(c(-c4ccc5c(c4)OCO5)c2cc1OC)C(=O)OC3` (stereo partly drawn) [Compound 31j, 3″-O-cyanoacetyl-7-O-β-D-patentiflorin A]: the EC50 in the series on HIV (setting [7]) was 0.91 nM; in the series with H5N1 virus (Influenza A virus), 0.84 nM; with EBOV (Ebola virus) it was 0.84 nM; in [4], 0.91 nM; in the series with SARS-CoV-2, 10.3 nM. Further, in the series on H5N1 virus (50 ng/mL), the “% Inhibition against H5N1 virus” value came to 98.2%. Further, the inhibition at 0.0125 µg/mL in the series with H5N1 virus (Influenza A virus, H5N1, A549, 12.5 ng/mL, read-out: % Inhibition against H5N1 virus) was determined as 97.5%; in the series with EBOV (Ebola virus) (A549, 12.5 ng/mL, read-out: % Inhibition against EBOV) it was 93.9%; in [4] (A549, 12.5 ng/mL, read-out: % Inhibition against VSV), 98.4%; in the series on A549 cells [5] it was 77%. Moreover, the inhibition at 0.05 µg/mL with H5N1 virus (Influenza A virus, H5N1, A549, 50 ng/mL, read-out: % Inhibition against H5N1 virus) was found to be 87.6%; in the series on EBOV (Ebola virus) (A549, 50 ng/mL, read-out: % Inhibition against EBOV), 96.6%; in series [4] (A549, 50 ng/mL, read-out: % Inhibition against VSV) it was 99.9%; in the series on A549 cells [5] it was 93.8%. Besides, the inhibition at 0.25 µg/mL in the series with H5N1 virus (Influenza A virus, H5N1, A549, 250 ng/mL, read-out: % Inhibition against H5N1 virus) was determined as 97.9%. Besides, the CC50 in the series “in vitro” (CC50 (nM)) and in “in vitro” (CC50 against the host cell line A549) was 6.68 nM in each case.

`COc1cc2c(OC3OC[C@@H](OC(C)=O)[C@H](OC(C)=O)[C@H]3OC(C)=O)c3c(c(-c4ccc5c(c4)OCO5)c2cc1OC)C(=O)OC3` (stereo partly drawn) [Compound 25a, Peracetylated 7β-D-xylosyloxydiphyllin]: the “anti-HIV activity in terms of SI values” in the series on HIV is reported as “much more improved anti-HIV activity”. The compound also showed an EC50 in the series with HIV (setting [7]) of 7 nM. In the series “in vitro” (CC50 (nM)), the CC50 worked out at 3080 nM. In series [3], the “excised organs at the end of the experiment” value is recorded as “appeared as normal”; the “toxic symptoms (weight loss, skin damage, food and water intake impairment and postual abnormality) and mortality” value is recorded as “no toxic symptoms”.
